Experimental data as given in patent US20250235458A1, “Benzimidazole derivatives for use in the treatment or prevention of a histiocytosis or a craniopharyngioma” (UNIVERSITE CLAUDE BERNARD LYON 1, priority 2021, published 2025).

Columns and labels:
Assay type in all cases: cell-based, murine
[1] = system: MutuDC1940 cells; assay: Proliferation assay (confluence by Incucyte)
Procedure: (§1) 1.5×10^4 cells (MutuDC1940) were plated onto 96 wells plates. Next day, cells were treated at 8 μM of compound 6 or vemurafenib or with the vehicle (DMSO) in presence of 0.3 μg/ml of propidium iodide (Sigma) to detect cell death. Proliferation and cell death were quantified by Incucyte® (Essen Biosciences) according to manufacturer's instructions over 48 h.
The results obtained for the proliferation assay are presented on FIG. 2. FIG. 2 presents the confluence, i.e. the percentage of the surface of the culture dish that is covered by the cells, observed during time for a culture of MutuDC1940 cells, a murine model of histiocytosis, treated at 8 μM with compound 6 according to the invention or with vemurafenib (a MAPK/BRAF inhibitor), or with the vehicle (DMSO).
(§2) The same experiments regarding cell proliferation (assessed by confluence in %) and cell death (assessed by number of dead cells on 13 mm^2) as in Example 1 were repeated with additional ERK/MyD88 inhibitors of formula (I): compounds 2, 7 and 17.
(§3) The same experiments regarding cell proliferation (assessed by confluence in %) and cell death (assessed by number of dead cells on 13 mm^2) as in Example 1 were repeated with a lower concentration, which corresponds to the IC50 of vemurafenib (BRAF inhibitor).

[2] = system: MutuDC1940 cells; assay: Cell death assay (propidium iodide, number of dead cells by Incucyte)
Procedure: as §1
The results obtained for the cell death assay are presented on FIG. 3. FIG. 3 presents the number of dead cells observed during time for a culture of MutuDC1940 cells, a murine model of histiocytosis, treated at 8 μM with compound 6 according to the invention or with vemurafenib (a MAPK/BRAF inhibitor), or with the vehicle (DMSO).
as §2, §3

[3] = system: MutuDC1940 cells; assay: CXCL2 quantification assay (ELISA); details: 8 μM, 16 h or 24 h treatment, vs DMSO
Procedure: 0.5×10^6 cells (MutuDC1940) were plated onto 6-well plates. Next day, cells were treated with 8 μM of compound 6 or DMSO for 16 or 24 hours. Each condition was performed in triplicate. Supernatants were collected and murine CXCL2 was measured by ELISA according to the manufacturer's instructions (Invitrogen).

[4] = 8 μM, over 48 h, vs vehicle (DMSO)

| Compound | cell proliferation (confluence in %) ([1]; ulixertinib at 1 μM, FIG. 11) | cell death (number of dead cells on 13 mm^2) ([2]; ulixertinib at 1 μM, FIG. 12) | cell proliferation (confluence in %) [1, 4] | cell death (number of dead cells on 13 mm^2) [2, 4] | production of CXCL2 (cytokine production) [3] |
| --- | --- | --- | --- | --- | --- |
| CC(C)Nc1cc(-c2c[nH]c(C(=O)N[C@H](CO)c3cccc(Cl)c3)c2)c(Cl)cn1 [ulixertinib, reference compound] | only inhibit proliferation | no effect on cell death |  |  |  |
| COc1ccc(NC(=O)c2ccc3[nH]c(-c4ccc(N(C)C)cc4)nc3c2)cn1 [compound 6] |  |  | inhibits the proliferation of the cells | induces the death of the cells | induces cytokine production |
